Source: ChEMBL document CHEMBL1201862, “PubChem BioAssay data set” (2004)
One block for each compound: values may come before it. Active and inactive are the calls of the source.

How the values were obtained:
Coagulation factor XII = target: T1, Coagulation factor XII (Homo sapiens, UniProt P00748); experiment: activated coagulation factor XII inhibitor potency, concentration-effect curve, cell-free (AID 716); format: functional
T1 sequence (P00748 whole entry): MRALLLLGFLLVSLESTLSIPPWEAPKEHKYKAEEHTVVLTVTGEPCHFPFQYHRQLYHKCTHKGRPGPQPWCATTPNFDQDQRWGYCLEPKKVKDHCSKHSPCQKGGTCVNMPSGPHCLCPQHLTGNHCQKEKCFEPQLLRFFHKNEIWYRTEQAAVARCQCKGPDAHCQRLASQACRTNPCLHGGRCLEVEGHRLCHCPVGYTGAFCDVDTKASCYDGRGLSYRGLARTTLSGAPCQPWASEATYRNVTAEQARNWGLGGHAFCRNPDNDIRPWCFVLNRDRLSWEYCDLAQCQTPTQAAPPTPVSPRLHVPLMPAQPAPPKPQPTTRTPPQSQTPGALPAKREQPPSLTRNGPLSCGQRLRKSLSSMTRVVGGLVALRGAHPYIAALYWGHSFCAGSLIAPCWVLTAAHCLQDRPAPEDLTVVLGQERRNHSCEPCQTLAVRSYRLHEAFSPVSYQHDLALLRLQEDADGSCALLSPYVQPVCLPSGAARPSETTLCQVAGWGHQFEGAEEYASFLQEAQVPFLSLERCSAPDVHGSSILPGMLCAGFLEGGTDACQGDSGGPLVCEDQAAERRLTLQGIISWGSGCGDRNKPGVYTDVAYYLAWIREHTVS

Hexokinase = Hexokinase (Trypanosoma brucei, UniProt Q38C41); experiment: Confirmation assay for inhibitors of Trypanosoma brucei hexokinase 1-Analogue-first series. [Related pubchem assays (depositor defined):AID1430, AID1632, AID2516, AID2560, AID2579, AID2600, AID449725, AID492951]; format: functional
[1] = target: Glucose-6-phosphate 1-dehydrogenase (Homo sapiens, UniProt P11413); experiment: inhibition of Homo sapiens G6PD, dose series – biochemical, fluorescence, selectivity assay for P. falciparum G6PD inhibitor project, dose response (AID 504792); format: functional
[2] = target: T2, Polyadenylate-binding protein 1 (Homo sapiens, UniProt P11940); experiment: MLLE binding blockers, Cy5 peptide tracer – biochemical, fluorescence polarization, Cy5-PAM2 peptide, secondary, miRNA deadenylation inhibitor project, dose response (AID 602260); format: functional; settings: read-out: IC50_Mean
[3] = target: T2, Polyadenylate-binding protein 1; experiment: MLLE domain peptide-binding blockers, IC50 – biochemical, fluorescence polarization, FITC-PAM2 peptide, dose response (AID 602259); format: functional; settings: read-out: IC50_Mean
Leucine aminopeptidase = target: T3, Leucine aminopeptidase (Plasmodium falciparum 3D7, UniProt Q8IL11); experiment: P. falciparum M17LAP inhibitors, primary screen, biochemical, fluorogenic H-Leu-NHMec substrate, 1536-well (AID 1619); format: functional
T3 sequence (Q8IL11 whole entry): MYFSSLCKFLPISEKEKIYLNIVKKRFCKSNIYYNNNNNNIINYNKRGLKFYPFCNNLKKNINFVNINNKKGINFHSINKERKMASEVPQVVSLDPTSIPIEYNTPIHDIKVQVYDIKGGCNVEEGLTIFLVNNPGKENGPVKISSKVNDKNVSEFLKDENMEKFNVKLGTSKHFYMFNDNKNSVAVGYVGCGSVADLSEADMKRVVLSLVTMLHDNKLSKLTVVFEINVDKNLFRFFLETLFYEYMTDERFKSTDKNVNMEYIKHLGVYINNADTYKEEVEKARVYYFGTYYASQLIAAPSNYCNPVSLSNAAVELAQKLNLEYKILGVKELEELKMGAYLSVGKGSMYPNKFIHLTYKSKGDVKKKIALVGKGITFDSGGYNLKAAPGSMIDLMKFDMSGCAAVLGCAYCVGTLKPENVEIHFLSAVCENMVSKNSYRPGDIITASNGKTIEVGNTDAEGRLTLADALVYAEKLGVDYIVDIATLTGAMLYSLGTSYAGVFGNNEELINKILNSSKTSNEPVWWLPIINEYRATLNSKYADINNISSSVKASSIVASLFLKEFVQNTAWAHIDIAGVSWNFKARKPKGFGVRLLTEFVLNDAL

Aspartyl aminopeptidase = target: T4, Aspartyl aminopeptidase (Plasmodium falciparum 3D7, UniProt Q8I2J3); experiment: Counterscreen for inhibitors of M1 and M17 aminopeptidases: QFRET-based biochemical high throughput dose response assay for inhibitors of the Plasmodium falciparum M18 Aspartyl Aminopeptidase (PFM18AAP). [Related PubChem assays: 1619 (Screening assay (M17LAP inhibitors).), 1445 (Screening assay (M1AAP inhibitors).)]
T4 sequence (Q8I2J3 whole entry): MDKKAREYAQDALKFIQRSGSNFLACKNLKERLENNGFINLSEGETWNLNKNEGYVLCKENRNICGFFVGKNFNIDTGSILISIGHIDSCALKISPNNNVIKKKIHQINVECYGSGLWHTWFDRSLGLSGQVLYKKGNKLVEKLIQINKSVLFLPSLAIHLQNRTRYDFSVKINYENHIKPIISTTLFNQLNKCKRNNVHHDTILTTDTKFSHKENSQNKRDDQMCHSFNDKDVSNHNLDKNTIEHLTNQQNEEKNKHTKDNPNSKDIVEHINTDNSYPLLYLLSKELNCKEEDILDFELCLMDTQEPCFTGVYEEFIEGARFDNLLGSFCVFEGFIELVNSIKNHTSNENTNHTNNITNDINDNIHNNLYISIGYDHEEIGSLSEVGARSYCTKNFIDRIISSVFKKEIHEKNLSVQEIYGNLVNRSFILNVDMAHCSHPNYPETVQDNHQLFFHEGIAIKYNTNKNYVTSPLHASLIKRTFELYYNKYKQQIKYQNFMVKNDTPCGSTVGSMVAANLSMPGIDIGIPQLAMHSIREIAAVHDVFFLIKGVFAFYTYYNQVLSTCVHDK

Procathepsin L = Procathepsin L (Homo sapiens, UniProt P07711); experiment: CTSL1 protease inhibition – biochemical, QFRET, 1536-well, counter-screen for M1/M17 aminopeptidase inhibitor project, dose response (AID 2214)
[4] = target: G-protein coupled receptor 55 (Homo sapiens, UniProt Q9Y2T6); experiment: selective activators of receptor GPR55 – imaging, U2OS cells, beta-arrestin-GFP redistribution, primary screen (AID 1961); format: functional
G-protein coupled receptor 55, sequence (Q9Y2T6 whole entry): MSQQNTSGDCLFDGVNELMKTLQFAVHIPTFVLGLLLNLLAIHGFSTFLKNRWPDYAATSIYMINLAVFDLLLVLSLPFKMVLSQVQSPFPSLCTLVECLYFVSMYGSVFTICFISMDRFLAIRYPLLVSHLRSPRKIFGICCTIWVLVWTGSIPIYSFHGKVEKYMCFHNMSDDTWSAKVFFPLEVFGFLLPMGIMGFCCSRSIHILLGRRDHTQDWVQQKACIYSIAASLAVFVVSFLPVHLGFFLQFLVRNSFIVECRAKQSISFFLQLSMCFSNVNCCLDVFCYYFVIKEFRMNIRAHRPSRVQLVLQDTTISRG

T2 sequence (P11940 whole entry, the tested form may be a part): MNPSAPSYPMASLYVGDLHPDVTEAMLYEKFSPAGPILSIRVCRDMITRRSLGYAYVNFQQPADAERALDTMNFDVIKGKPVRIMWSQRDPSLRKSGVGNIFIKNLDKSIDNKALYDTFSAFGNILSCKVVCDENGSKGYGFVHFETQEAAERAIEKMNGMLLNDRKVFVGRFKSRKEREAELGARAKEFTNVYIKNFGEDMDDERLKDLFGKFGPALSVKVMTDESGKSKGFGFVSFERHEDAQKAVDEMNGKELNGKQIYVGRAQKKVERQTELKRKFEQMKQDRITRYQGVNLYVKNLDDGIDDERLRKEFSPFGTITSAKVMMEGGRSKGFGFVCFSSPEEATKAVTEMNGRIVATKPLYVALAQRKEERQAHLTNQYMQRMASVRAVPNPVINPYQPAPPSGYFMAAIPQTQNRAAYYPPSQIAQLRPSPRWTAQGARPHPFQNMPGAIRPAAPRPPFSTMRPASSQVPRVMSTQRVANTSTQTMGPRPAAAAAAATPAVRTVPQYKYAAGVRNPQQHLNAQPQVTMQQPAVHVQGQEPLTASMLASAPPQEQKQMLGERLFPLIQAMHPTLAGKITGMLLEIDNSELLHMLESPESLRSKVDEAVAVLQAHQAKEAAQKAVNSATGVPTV
Glucose-6-phosphate 1-dehydrogenase, sequence (P11413 whole entry): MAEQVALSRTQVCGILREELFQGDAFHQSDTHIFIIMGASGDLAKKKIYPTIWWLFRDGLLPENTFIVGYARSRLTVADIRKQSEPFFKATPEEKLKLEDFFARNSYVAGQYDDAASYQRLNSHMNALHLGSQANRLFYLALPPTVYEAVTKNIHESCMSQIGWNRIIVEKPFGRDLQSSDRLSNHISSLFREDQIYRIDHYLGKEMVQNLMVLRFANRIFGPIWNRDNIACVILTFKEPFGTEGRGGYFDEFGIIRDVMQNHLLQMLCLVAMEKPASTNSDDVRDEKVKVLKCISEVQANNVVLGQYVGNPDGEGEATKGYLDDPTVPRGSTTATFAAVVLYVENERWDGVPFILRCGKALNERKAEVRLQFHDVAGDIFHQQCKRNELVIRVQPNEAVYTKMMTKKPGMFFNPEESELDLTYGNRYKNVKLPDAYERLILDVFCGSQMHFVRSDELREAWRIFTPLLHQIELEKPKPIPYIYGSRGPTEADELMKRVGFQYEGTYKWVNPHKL
Procathepsin L, sequence (P07711 whole entry): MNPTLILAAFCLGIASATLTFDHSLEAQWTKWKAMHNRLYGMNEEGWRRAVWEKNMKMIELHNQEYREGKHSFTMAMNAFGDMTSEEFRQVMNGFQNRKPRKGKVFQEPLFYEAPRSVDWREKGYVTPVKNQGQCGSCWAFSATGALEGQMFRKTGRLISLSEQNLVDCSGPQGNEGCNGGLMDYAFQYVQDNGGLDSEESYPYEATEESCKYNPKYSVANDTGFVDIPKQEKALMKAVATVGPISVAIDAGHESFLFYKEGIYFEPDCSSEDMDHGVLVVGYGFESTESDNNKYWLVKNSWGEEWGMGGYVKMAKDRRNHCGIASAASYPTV
Hexokinase, sequence (Q38C41 whole entry): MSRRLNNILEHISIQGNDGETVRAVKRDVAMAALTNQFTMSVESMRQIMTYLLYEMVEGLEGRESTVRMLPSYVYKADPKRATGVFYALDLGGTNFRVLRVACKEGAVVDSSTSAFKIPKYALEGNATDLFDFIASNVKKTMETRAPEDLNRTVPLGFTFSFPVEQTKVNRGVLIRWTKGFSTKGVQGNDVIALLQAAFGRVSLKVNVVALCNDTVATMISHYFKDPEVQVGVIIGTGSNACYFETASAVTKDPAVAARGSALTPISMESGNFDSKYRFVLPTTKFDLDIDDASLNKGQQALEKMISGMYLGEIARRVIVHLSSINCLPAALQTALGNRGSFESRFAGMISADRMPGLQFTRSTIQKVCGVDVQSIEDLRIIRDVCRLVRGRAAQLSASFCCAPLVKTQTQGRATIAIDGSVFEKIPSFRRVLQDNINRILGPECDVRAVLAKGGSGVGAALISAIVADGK

IC50 (Coagulation factor XII): 3.76 µM (active)
SMILES: COc1ccc2c(c1)CCc1c(C(=O)NCc3cccnc3)noc1-2

SMILES: N#Cc1ccc2c(=O)n(-c3ccccc3)sc2c1
IC50 (Hexokinase): 6.66 µM (active)
IC50 [1]: 7.11 µM (active)
IC50 [2]: > 66 µM (inactive)
IC50 [3]: > 66 µM (inactive)

IC50 (Leucine aminopeptidase): < 1 µM (active)
IC50 (Aspartyl aminopeptidase): > 73.5 µM (not active)
IC50 (Procathepsin L): > 59.6 µM (not active)
EC50 [4]: 30.3 µM (inactive)
SMILES: O=C(CSc1nnc(Nc2ccccc2)s1)NN1C(=O)NC2(CCCCC2)C1=O
